Experimental findings from patent publication US11254686B1 (Corvus Pharmaceuticals, Inc., priority 2017, dated 2022) are described below.

One assay deals with adenosine A2B receptor (Homo sapiens (Human), UniProt P29275). The assay is described as follows: Adenosine receptor activity assay (Table 1), A2B activity. The conditions noted are these: for Ratio: A2A activity to A2B activity (A2A/A2B); for IC50: read-out: Ave A2B cAMP IC50. The assay is classed as biochemical.
The next assay concerns the target adenosine A3 receptor (Homo sapiens (Human), UniProt P0DMS8). The assay is described as follows: Adenosine receptor activity assay (Table 1), A3 cAMP. The assay is classed as cell-based.
For the next assay, the target named is adenosine A1 receptor (Homo sapiens (Human), UniProt P30542). The assay is described as follows: Adenosine receptor activity assay (Table 1), A1 cAMP. The format is cell-based.
Chain of adenosine A1 receptor (P30542 whole entry): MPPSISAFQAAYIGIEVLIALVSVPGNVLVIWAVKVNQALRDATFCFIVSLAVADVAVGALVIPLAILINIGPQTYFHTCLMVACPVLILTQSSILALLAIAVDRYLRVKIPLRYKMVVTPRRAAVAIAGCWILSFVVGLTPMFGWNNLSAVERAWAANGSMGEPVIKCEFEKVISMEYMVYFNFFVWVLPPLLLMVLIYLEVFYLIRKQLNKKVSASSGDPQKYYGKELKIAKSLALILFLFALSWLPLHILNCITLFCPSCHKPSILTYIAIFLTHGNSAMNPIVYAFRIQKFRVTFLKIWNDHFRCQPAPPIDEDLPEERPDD
Another assay has as its target adenosine A2A receptor (Homo sapiens (Human), UniProt P29274). The assay is described as follows: Adenosine receptor activity assay (Table 1), A2A activity. The format is biochemical. Particulars: read-out: Ave A2A cAMP IC50.

Structures are written as SMILES.

Chain of adenosine A2B receptor (P29275 whole entry): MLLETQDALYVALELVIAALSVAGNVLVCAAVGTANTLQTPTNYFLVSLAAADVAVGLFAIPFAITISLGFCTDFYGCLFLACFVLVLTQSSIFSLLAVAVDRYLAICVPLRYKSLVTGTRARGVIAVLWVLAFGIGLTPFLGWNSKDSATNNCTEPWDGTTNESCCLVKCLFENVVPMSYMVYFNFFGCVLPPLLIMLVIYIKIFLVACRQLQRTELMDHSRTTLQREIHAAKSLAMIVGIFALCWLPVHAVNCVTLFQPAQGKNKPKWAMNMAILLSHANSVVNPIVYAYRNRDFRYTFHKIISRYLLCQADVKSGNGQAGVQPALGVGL
Chain of adenosine A2A receptor (P29274 whole entry): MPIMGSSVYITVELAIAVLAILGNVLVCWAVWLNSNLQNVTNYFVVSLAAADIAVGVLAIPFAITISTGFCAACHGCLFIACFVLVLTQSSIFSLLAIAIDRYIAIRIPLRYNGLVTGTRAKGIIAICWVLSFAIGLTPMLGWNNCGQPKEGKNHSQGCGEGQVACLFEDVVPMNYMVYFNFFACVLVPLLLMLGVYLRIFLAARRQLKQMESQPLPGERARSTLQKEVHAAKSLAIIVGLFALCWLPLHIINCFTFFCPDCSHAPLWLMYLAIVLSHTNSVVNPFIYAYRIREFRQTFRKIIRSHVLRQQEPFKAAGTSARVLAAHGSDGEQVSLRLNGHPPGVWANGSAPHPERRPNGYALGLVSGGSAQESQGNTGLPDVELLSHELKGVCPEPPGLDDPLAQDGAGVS
Chain of adenosine A3 receptor (P0DMS8 whole entry): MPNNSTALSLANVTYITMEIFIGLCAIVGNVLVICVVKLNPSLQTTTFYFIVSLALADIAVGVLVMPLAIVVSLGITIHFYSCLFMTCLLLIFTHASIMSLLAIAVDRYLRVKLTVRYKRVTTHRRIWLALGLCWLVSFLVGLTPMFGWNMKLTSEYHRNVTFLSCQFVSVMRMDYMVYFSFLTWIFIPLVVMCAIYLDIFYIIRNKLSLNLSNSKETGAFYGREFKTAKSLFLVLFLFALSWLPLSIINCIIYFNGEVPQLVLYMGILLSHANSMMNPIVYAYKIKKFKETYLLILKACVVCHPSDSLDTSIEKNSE

One may read the IC50 as the point on the concentration scale where inhibition reaches its midpoint. Turning to `Cc1cc2nc(N[C@@H](C)c3cncc(F)c3)nc(C(=O)N3CC[C@@H](CO)C3)c2s1` [Example Z310, (2-(((S)-1-(5-Fluoropyridin-3-yl)ethyl)amino)-6-methylthieno[3,2-d]pyrimidin-4-yl)((R)-3-(hydroxymethyl)pyrrolidin-1-yl)methanone], the Ratio on adenosine A2B receptor turned out to be 71.73. The IC50 at adenosine A2B receptor is < 10 nM; on adenosine A3 receptor, > 500 nM; at adenosine A1 receptor it was > 500 nM; on adenosine A2A receptor, 100 to 500 nM.

As for `CO[C@H]1CCN(C(=O)c2nc(N[C@@H](C)c3ccccn3)nc3cc(C)sc23)C1` [Example Z311, ((S)-3-Methoxypyrrolidin-1-yl)(6-methyl-2-(((S)-1-(pyridin-2-yl)ethyl)amino)thieno[3,2-d]pyrimidin-4-yl)methanone], on adenosine A2B receptor, the Ratio was 3.82. Further, the IC50 at adenosine A2B receptor was 10 to 50 nM; at adenosine A3 receptor it was 50 to 100 nM; on adenosine A1 receptor it was > 500 nM; at adenosine A2A receptor it was 50 to 100 nM.

Turning to `C[C@H](Nc1nc(C(=O)N[C@@H]2CCN(C(=O)OC(C)(C)C)C2)c2sccc2n1)c1ccccn1` [Example Z326, tert-Butyl (R)-3-(2-(((S)-1-(pyridin-2-yl)ethyl)amino)thieno[3,2-d]pyrimidine-4-carboxamido)pyrrolidine-1-carboxylate], on adenosine A2B receptor, the Ratio is recorded as 0.54. For the same molecule, the IC50 on adenosine A2B receptor was 50 to 100 nM; against adenosine A3 receptor it was 10 to 50 nM; at adenosine A1 receptor, > 500 nM; on adenosine A2A receptor, 10 to 50 nM.

Take `C[C@H](Nc1nc(C(=O)N2CCCC2)c2sc(C(F)(F)F)cc2n1)c1cccnc1` [Example Z327, (S)-(2-((1-(Pyridin-3-yl)ethyl)amino)-6-(trifluoromethyl)thieno[3,2-d]pyrimidin-4-yl)(pyrrolidin-1-yl)methanone]: on adenosine A2B receptor, the Ratio was 143.99. For the same molecule, the IC50 on adenosine A2B receptor is < 10 nM; on adenosine A3 receptor, > 500 nM; at adenosine A1 receptor, > 500 nM; on adenosine A2A receptor, > 500 nM.

For the molecule `Cc1cc2nc(N[C@@H](C)c3cccnc3)nc(C(=O)NC[C@H](C)O)c2s1` [Example Z328, N—((S)-2-Hydroxypropyl)-6-methyl-2-(((S)-1-(pyridin-3-yl)ethyl)amino)thieno[3,2-d]pyrimidine-4-carboxamide], the Ratio on adenosine A2B receptor worked out at 107.75. The IC50 is < 10 nM on adenosine A2B receptor, 50 to 100 nM on adenosine A3 receptor, > 500 nM against adenosine A1 receptor and 100 to 500 nM at adenosine A2A receptor.

With `C[C@H](Nc1nc(C(=O)N[C@H]2CC[C@@H](O)C2)c2sccc2n1)c1cncc(F)c1` [Example Z329, 2-(((S)-1-(5-Fluoropyridin-3-yl)ethyl)amino)-N-((1S,3R)-3-hydroxycyclopentyl)thieno[3,2-d]pyrimidine-4-carboxamide], the Ratio on adenosine A2B receptor came to 26.05. Further, the IC50 was < 10 nM at adenosine A2B receptor, 50 to 100 nM against adenosine A3 receptor, 50 to 100 nM at adenosine A1 receptor and 10 to 50 nM on adenosine A2A receptor.

For the molecule `CC(=O)N[C@H]1CCN(C(=O)c2nc(N[C@@H](C)c3cncc(F)c3)nc3ccsc23)C1` [Example Z331, N—((S)-1-(2-(((S)-1-(5-Fluoropyridin-3-yl)ethyl)amino)thieno[3,2-d]pyrimidine-4-carbonyl)pyrrolidin-3-yl)acetamide], the Ratio on adenosine A2B receptor stood at 61.94. Moreover, the IC50 at adenosine A2B receptor is < 10 nM; against adenosine A3 receptor it was > 500 nM; at adenosine A1 receptor it was > 500 nM; at adenosine A2A receptor, 100 to 500 nM.

With `Cc1cc2nc(N[C@@H](C)c3cccnc3)nc(C(=O)NC[C@@H](C)O)c2s1` [Example Z334, N—((R)-2-Hydroxypropyl)-6-methyl-2-(((S′)-1-(pyridin-3-yl)ethyl)amino)thieno[3,2-d]pyrimidine-4-carboxamide], the Ratio on adenosine A2B receptor came out at 171.86. In addition, the IC50 was < 10 nM at adenosine A2B receptor, 50 to 100 nM at adenosine A3 receptor, > 500 nM on adenosine A1 receptor and 100 to 500 nM at adenosine A2A receptor.

`Cc1cc2nc(N[C@@H](C)c3cccnc3)nc(C(=O)N3CC[C@H](CO)C3)c2s1` [Example Z336, ((S)-3-(Hydroxymethyl)pyrrolidin-1-yl)(6-methyl-2-(((S)-1-(pyridin-3-yl)ethyl)amino)thieno[3,2-d]pyrimidin-4-yl)methanone]: the Ratio on adenosine A2B receptor stood at 136.91. The IC50 was < 10 nM on adenosine A2B receptor, > 500 nM at adenosine A3 receptor, > 500 nM against adenosine A1 receptor and > 500 nM on adenosine A2A receptor.

Regarding `C[C@H](Nc1nc(C(=O)NCC2CCOCC2)c2sccc2n1)c1cncc(F)c1` [Example Z339, (S)-2-((1-(5-Fluoropyridin-3-yl)ethyl)amino)-N-((tetrahydro-2H-pyran-4-yl)methyl)thieno[3,2-d]pyrimidine-4-carboxamide], the Ratio on adenosine A2B receptor was 10.57. Moreover, the IC50 on adenosine A2B receptor was < 10 nM; on adenosine A3 receptor it was > 500 nM; at adenosine A1 receptor it was > 500 nM; at adenosine A2A receptor, 50 to 100 nM.

As to `COC[C@@H](Nc1nc(C(=O)N2CCC2)c2sccc2n1)c1cccnc1` [Example Z341, (S)-Azetidin-1-yl(2-((2-methoxy-1-(pyridin-3-yl)ethyl)amino)thieno[3,2-d]pyrimidin-4-yl)methanone], the Ratio on adenosine A2B receptor was determined as 30.12. For the same molecule, the IC50 on adenosine A2B receptor was < 10 nM; at adenosine A3 receptor it was > 500 nM; against adenosine A1 receptor it was > 500 nM; on adenosine A2A receptor it was 100 to 500 nM.

Turning to `C[C@H](Nc1nc(C(=O)N2CC[C@H](O)C2)c2sc(C(F)(F)F)cc2n1)c1cncc(F)c1` [Example Z346, (2-(((S)-1-(5-Fluoropyridin-3-yl)ethyl)amino)-6-(trifluoromethyl)thieno[3,2-d]pyrimidin-4-yl)((S)-3-hydroxypyrrolidin-1-yl)methanone], the Ratio on adenosine A2B receptor is listed as 448.66. In addition, the IC50 at adenosine A2B receptor was < 10 nM; against adenosine A3 receptor, > 500 nM; at adenosine A1 receptor, > 500 nM; on adenosine A2A receptor, > 500 nM.

As to `C[C@H](O)CNC(=O)c1nc(N[C@@H](C)c2cccnc2)nc2cc(C(F)(F)F)sc12` [Example Z347, N—((S)-2-Hydroxypropyl)-2-(((S)-1-(pyridin-3-yl)ethyl)amino)-6-(trifluoromethyl)thieno[3,2-d]pyrimidine-4-carboxamide], the Ratio at adenosine A2B receptor stood at 98.22. Besides, the IC50 on adenosine A2B receptor was 10 to 50 nM; against adenosine A3 receptor, 50 to 100 nM; against adenosine A1 receptor, > 500 nM; at adenosine A2A receptor, > 500 nM.

In the case of `C[C@H](Nc1nc(C(=O)NC[C@@H](C)O)c2sc(C(F)(F)F)cc2n1)c1cccnc1` [Example Z348, N—((R)-2-Hydroxypropyl)-2-(((S)-1-(pyridin-3-yl)ethyl)amino)-6-(trifluoromethyl)thieno[3,2-d]pyrimidine-4-carboxamide], on adenosine A2B receptor, the Ratio stood at 92.29. Moreover, the IC50 at adenosine A2B receptor was 10 to 50 nM; against adenosine A3 receptor, 50 to 100 nM; on adenosine A1 receptor, > 500 nM; at adenosine A2A receptor it was > 500 nM.

Regarding `Cc1cc2nc(N[C@@H](C)c3ccccn3)nc(C(=O)NC3CCC3)c2s1` [Example Z352, (S)—N-Cyclobutyl-6-methyl-2-((1-(pyridin-2-yl)ethyl)amino)thieno[3,2-d]pyrimidine-4-carboxamide], the Ratio at adenosine A2B receptor came out at 9.52. Besides, the IC50 on adenosine A2B receptor was < 10 nM; on adenosine A3 receptor, 50 to 100 nM; at adenosine A1 receptor it was 50 to 100 nM; at adenosine A2A receptor, 10 to 50 nM.

With `Cc1cc2nc(N[C@@H](C)c3ccccn3)nc(C(=O)NCCO)c2s1` [Example Z353, (S)—N-(2-Hydroxyethyl)-6-methyl-2-((1-(pyridin-2-yl)ethyl)amino)thieno[3,2-d]pyrimidine-4-carboxamide], the Ratio at adenosine A2B receptor is 53.12. Moreover, the IC50 at adenosine A2B receptor was < 10 nM; at adenosine A3 receptor it was 50 to 100 nM; at adenosine A1 receptor, 50 to 100 nM; at adenosine A2A receptor, 100 to 500 nM.

For `Cc1cc2nc(N[C@@H](C)c3cccnc3)nc(C(=O)NCCO)c2s1` [Example Z368, (S)—N-(2-Hydroxyethyl)-6-methyl-2-((1-(pyridin-3-yl)ethyl)amino)thieno[3,2-d]pyrimidine-4-carboxamide], the Ratio on adenosine A2B receptor worked out at 74.02. In addition, the IC50 is < 10 nM at adenosine A2B receptor, 50 to 100 nM on adenosine A3 receptor, 50 to 100 nM against adenosine A1 receptor and 100 to 500 nM on adenosine A2A receptor.

Regarding `Cc1cc2nc(N[C@@H](C)c3cncc(F)c3)nc(C(=O)NCCc3ccc(O)cc3)c2s1` [Example Z373, (S)-2-((1-(5-Fluoropyridin-3-yl)ethyl)amino)-N-(4-hydroxyphenethyl)-6-methylthieno[3,2-d]pyrimidine-4-carboxamide], the Ratio on adenosine A2B receptor worked out at 75.08. Also, the IC50 on adenosine A2B receptor is < 10 nM; on adenosine A3 receptor, 10 to 50 nM; against adenosine A1 receptor it was 50 to 100 nM; at adenosine A2A receptor, 100 to 500 nM.

As for `COc1cccc(CNC(=O)c2nc(N[C@@H](C)c3cncc(F)c3)nc3cc(C)sc23)n1` [Example Z374, (S)-2-((1-(5-Fluoropyridin-3-yl)ethyl)amino)-N-((6-methoxypyridin-2-yl)methyl)-6-methylthieno[3,2-d]pyrimidine-4-carboxamide], the Ratio at adenosine A2B receptor is recorded as 19.21. Moreover, the IC50 on adenosine A2B receptor was < 10 nM; against adenosine A3 receptor it was 10 to 50 nM; on adenosine A1 receptor, 50 to 100 nM; on adenosine A2A receptor, 100 to 500 nM.

With `Cc1cc2nc(N[C@@H](C)c3cncc(F)c3)nc(C(=O)NCC3CCOCC3)c2s1` [Example Z376, (S)-2-((1-(5-Fluoropyridin-3-yl)ethyl)amino)-6-methyl-N-((tetrahydro-2H-pyran-4-yl)methyl)thieno[3,2-d]pyrimidine-4-carboxamide], on adenosine A2B receptor, the Ratio turned out to be 32.01. The IC50 was < 10 nM at adenosine A2B receptor, 50 to 100 nM against adenosine A3 receptor, 50 to 100 nM at adenosine A1 receptor and 100 to 500 nM at adenosine A2A receptor.
